Test results: patent US20040219189A1 (priority 2001, published 2004)

Assays:
kainate receptors = conditions: Narita et al. 1993; cited from earlier work
Arbor Acres broilers = assay: Fattening of broilers with feed containing GABA (day 21 to day 41 after birth); format: in vivo; conditions: for increase in the body weight per 1 kg of feed during day 21 to day 41 after birth: compared to 0% group (p<0.05), FIG. 2; for increase in the body weight from day 21 to day 41 after birth: FIG. 1
[1] = tested on: ventromedial nucleus of hypothalamus (VMH) of rat; conditions: VMH stimulated by water absorbent polymers, Yokawa et al. 1990; cited from earlier work

C=C(C)[C@H]1CN[C@H](C(=O)O)[C@H]1CC(=O)O [kainate]
running activity in rat (kainate receptors): induced

O=C1N=c2cc([N+](=O)[O-])c([N+](=O)[O-])cc2=NC1=O [DNQX, 6,7-dinitroquinoxaline-2,3-dione]
inhibition of kainate-induced running activity in rat (kainate receptors): inhibited

NCCCC(=O)O [GABA, γ-aminobutyric acid]
increase in the body weight per 1 kg of feed during day 21 to day 41 after birth (Arbor Acres broilers; 0.5% GABA additive rate): significant increase
increase in the body weight from day 21 to day 41 after birth (Arbor Acres broilers; 0.5% additive rate of GABA in feed): tendency of increase was also observed at 0.5% but the significant difference was not clearly observed
increase in the body weight per 1 kg of feed during day 21 to day 41 after birth (Arbor Acres broilers; 1% GABA additive rate): significant increase
increase in the body weight from day 21 to day 41 after birth (Arbor Acres broilers; 1% additive rate of GABA in feed): maximum increase
increase in the body weight per 1 kg of feed during day 21 to day 41 after birth (Arbor Acres broilers; 3% GABA additive rate): significant increase
induction of rat running activity caused by polymers [1]: inhibited
